Assay results taken from paper PMC6792352, “Limited Chemical Structural Diversity Found to Modulate Thyroid Hormone Receptor in the Tox21 Chemical Library” (Environmental Health Perspectives, 2019).
Counter-ions that a name gives are not always drawn.

Assay: in vitro
Conditions: rat, gh3-tre-luc cells

O=C1c2ccccc2C(=O)c2c(O)ccc(O)c21 [1,4-Dihydroxyanthracene-9,10-dione]
CC50 at 24 h (AC50 (uM) modified / 1000): > 90 µM

CC(C)c1ccc(C(C)C)cc1 [1,4-Diisopropylbenzene]
CC50 at 24 h (AC50 (uM) modified / 1000): > 90 µM

Cc1ccc(C)c([N+](=O)[O-])c1 [1,4-Dimethyl-2-nitrobenzene]
CC50 at 24 h (AC50 (uM) modified / 1000): > 90 µM

Cc1ccc(C)c2ccccc12 [1,4-Dimethylnaphthalene]
CC50 at 24 h (AC50 (uM) modified / 1000): > 90 µM

O=C1CCCCCCCCCCCC(=O)OCCO1 [1,4-Dioxacycloheptadecane-5,17-dione]
CC50 at 24 h (AC50 (uM) modified / 1000): > 90 µM

O=C1CCCCCCCCCCC(=O)OCCO1 [1,4-Dioxacyclohexadecane-5,16-dione]
CC50 at 24 h (AC50 (uM) modified / 1000): > 90 µM

OC1OCCOC1O (centres unmarked) [1,4-Dioxane-2,3-diol]
CC50 at 24 h (AC50 (uM) modified / 1000): > 90 µM

C1COCCO1 [1,4-Dioxane]
CC50 at 24 h (AC50 (uM) modified / 1000): > 90 µM

C1CSCCS1 [1,4-Dithiane]
CC50 at 24 h (AC50 (uM) modified / 1000): > 90 µM

C=Cc1ccc(C=C)cc1 [1,4-Divinylbenzene]
CC50 at 24 h (AC50 (uM) modified / 1000): > 100 µM

CCCC1CCC(=O)O1 (centres unmarked) [1,4-Heptanolide]
CC50 at 24 h (AC50 (uM) modified / 1000): > 90 µM

C=CCC=CC [1,4-Hexadiene]
CC50 at 24 h (AC50 (uM) modified / 1000): > 90 µM

Nc1ccc(N)c2ccccc12 [1,4-Naphthalenediamine]
CC50 at 24 h (AC50 (uM) modified / 1000): > 90 µM

OCCN1CCN(CCO)CC1 [1,4-Piperazinediethanol]
CC50 at 24 h (AC50 (uM) modified / 1000): > 90 µM

NCCCN1CCN(CCCN)CC1 [1,4-bis(3-Aminopropyl)piperazine]
CC50 at 24 h (AC50 (uM) modified / 1000): > 90 µM

C1=C\CC/C=C/CC/C=C/CC/1 [1,5,9-Cyclododecatriene]
CC50 at 24 h (AC50 (uM) modified / 1000): > 90 µM

C1=C\CC/C=C\CC/1 [1,5-Cyclooctadiene]
CC50 at 24 h (AC50 (uM) modified / 1000): > 100 µM

O=C(/C=C/c1ccc(O)c(O)c1)O[C@@H]1C[C@](OC(=O)/C=C/c2ccc(O)c(O)c2)(C(=O)O)C[C@@H](O)[C@H]1O [1,5-Dicaffeoylquinic acid]
CC50 at 24 h (AC50 (uM) modified / 1000): > 50 µM

O=[N+]([O-])c1cccc2c([N+](=O)[O-])cccc12 [1,5-Dinitronaphthalene]
CC50 at 24 h (AC50 (uM) modified / 1000, Tox21_110001=Tox21_200953, viability, 1 nM T3 present, 24 h): > 90 µM

C=CCCC=C [1,5-Hexadiene]
CC50 at 24 h (AC50 (uM) modified / 1000): > 90 µM

Nc1cccc2c(N)cccc12 [1,5-Naphthalenediamine]
CC50 at 24 h (AC50 (uM) modified / 1000): > 90 µM

O=S(=O)(O)c1cccc2c(S(=O)(=O)O)cccc12 [1,5-Naphthalenedisulfonic acid, disodium salt hydrate]
CC50 at 24 h (AC50 (uM) modified / 1000): > 90 µM

OCCCCCO [1,5-Pentanediol]
CC50 at 24 h (AC50 (uM) modified / 1000): > 100 µM

BrCCCCCCBr [1,6-Dibromohexane]
CC50 at 24 h (AC50 (uM) modified / 1000, Tox21_110001=Tox21_302059, viability, 1 nM T3 present, 24 h): > 90 µM

ClCCCCCCCl [1,6-Dichlorohexane]
CC50 at 24 h (AC50 (uM) modified / 1000, Tox21_110001=Tox21_302121, viability, 1 nM T3 present, 24 h): > 90 µM

O=C=NCCCCCCN=C=O [1,6-Diisocyanatohexane]
CC50 at 24 h (AC50 (uM) modified / 1000): > 90 µM

Cc1ccc2c(C)cccc2c1 [1,6-Dimethylnaphthalene]
CC50 at 24 h (AC50 (uM) modified / 1000): > 90 µM

NCCCCCCN [1,6-Hexanediamine]
CC50 at 24 h (AC50 (uM) modified / 1000): > 90 µM

C=C(C)C(=O)OCCCCCCOC(=O)C(=C)C [1,6-Hexanediol dimethacrylate]
CC50 at 24 h (AC50 (uM) modified / 1000): > 90 µM

OCCCCCCO [1,6-Hexanediol]
CC50 at 24 h (AC50 (uM) modified / 1000): > 90 µM

C1CCC2(CCCCO2)OC1 [1,7-Dioxaspiro[5.5]undecane]
CC50 at 24 h (AC50 (uM) modified / 1000): > 90 µM

Oc1cccc2cc3cccc(O)c3c(O)c12 [1,8,9-Trihydroxyanthracene]
CC50 at 24 h (AC50 (uM) modified / 1000): > 90 µM

CC12CCC(CC1)C(C)(C)O2 [1,8-Cineol]
CC50 at 24 h (AC50 (uM) modified / 1000): > 90 µM

CC1(N)CCC(C(C)(C)N)CC1 (centres unmarked) [1,8-Diamino-p-menthane]
CC50 at 24 h (AC50 (uM) modified / 1000): > 90 µM

C1CCC2=NCCCN2CC1 [1,8-Diazabicyclo[5.4.0]undec-7-ene]
CC50 at 24 h (AC50 (uM) modified / 1000): > 90 µM

O=C1c2c(O)ccc([N+](=O)[O-])c2C(=O)c2c([N+](=O)[O-])ccc(O)c21 [1,8-Dihydroxy-4,5-dinitroanthraquinone]
CC50 at 24 h (AC50 (uM) modified / 1000): 8.27 µM

O=[N+]([O-])c1cccc2cccc([N+](=O)[O-])c12 [1,8-Dinitronaphthalene]
CC50 at 24 h (AC50 (uM) modified / 1000, Tox21_110001=Tox21_202886, viability, 1 nM T3 present, 24 h): > 90 µM

SCCCCCCCCS [1,8-Octanedithiol]
CC50 at 24 h (AC50 (uM) modified / 1000): > 90 µM

C=CCCCCCCC=C [1,9-Decadiene]
CC50 at 24 h (AC50 (uM) modified / 1000): > 90 µM

C=C(C)C(=O)OCCCCCCCCCCOC(=O)C(=C)C [1,10-Decanediol dimethacrylate]
CC50 at 24 h (AC50 (uM) modified / 1000): > 90 µM

CC(Cc1ccc2c(c1)OCO2)NO (centres unmarked) [1-(1,3-Benzodioxol-5-yl)-N-hydroxypropan-2-amine hydrochloride]
CC50 at 24 h (AC50 (uM) modified / 1000, Tox21_110001=Tox21_112852, viability, 1 nM T3 present, 24 h): > 100 µM

CNC(C)Cc1ccc2c(c1)OCO2 (centres unmarked) [1-(1,3-Benzodioxol-5-yl)-N-methylpropan-2-amine hydrochloride]
CC50 at 24 h (AC50 (uM) modified / 1000, Tox21_110001=Tox21_112889, viability, 1 nM T3 present, 24 h): > 100 µM

NC(=S)Nc1cccc2ccccc12 [1-(1-Naphthyl)-2-thiourea]
CC50 at 24 h (AC50 (uM) modified / 1000, Tox21_110001=Tox21_203002, viability, 1 nM T3 present, 24 h): > 5 µM

CCC(=O)C=CC1C(C)=CCCC1(C)C (centres unmarked) [1-(2,6,6-Trimethyl-2-cyclohexen-1-yl)-1-penten-3-one]
CC50 at 24 h (AC50 (uM) modified / 1000): > 90 µM

O=C1Cc2ccccc2N1c1c(Cl)cccc1Cl [1-(2,6-Dichlorophenyl)-2-indolinone]
CC50 at 24 h (AC50 (uM) modified / 1000): > 90 µM

NCCN1CCNC1=O [1-(2-Aminoethyl)imidazolidin-2-one]
CC50 at 24 h (AC50 (uM) modified / 1000): > 90 µM

NCCN1CCNCC1 [1-(2-Aminoethyl)piperazine]
CC50 at 24 h (AC50 (uM) modified / 1000): > 90 µM

CCCCOCC(C)OCC(C)O (centres unmarked) [1-(2-Butoxy-1-methylethoxy)propan-2-ol]
CC50 at 24 h (AC50 (uM) modified / 1000): > 90 µM

CC=C(CC)C(=O)NC(N)=O [1-(2-Ethylcrotonoyl)urea]
CC50 at 24 h (AC50 (uM) modified / 1000, Tox21_110001=Tox21_113550, viability, 1 nM T3 present, 24 h): > 50 µM

Cn1cc[n+](CCO)c1 [1-(2-Hydroxyethyl)-3-methylimidazolium chloride]
CC50 at 24 h (AC50 (uM) modified / 1000): > 90 µM

O=C1CCCN1CCO [1-(2-Hydroxyethyl)pyrrolidin-2-one]
CC50 at 24 h (AC50 (uM) modified / 1000): > 90 µM

C=C(C)c1cccc(C(C)(C)N=C=O)c1 [1-(2-Isocyanatopropan-2-yl)-3-(prop-1-en-2-yl)benzene]
CC50 at 24 h (AC50 (uM) modified / 1000): > 90 µM

COc1ccccc1N1CCNCC1 [1-(2-Methoxyphenyl)piperazine hydrochloride]
CC50 at 24 h (AC50 (uM) modified / 1000, Tox21_110001=Tox21_111273, viability, 1 nM T3 present, 24 h): > 50 µM

CC(=O)OC1(c2ccccc2)CCN(CCc2ccccc2)CC1 [1-(2-Phenylethyl)-4-phenyl-4-acetoxypiperidine]
CC50 at 24 h (AC50 (uM) modified / 1000, Tox21_110001=Tox21_112833, viability, 1 nM T3 present, 24 h): 84.5 µM

Clc1cccc(N2CCNCC2)c1 [1-(3-Chlorophenyl)piperazine]
CC50 at 24 h (AC50 (uM) modified / 1000, Tox21_110001=Tox21_110110, viability, 1 nM T3 present, 24 h): > 50 µM

CC(C)(C)C(=O)CCc1ccc(Cl)cc1 [1-(4-Chlorophenyl)-4,4-dimethyl-pentan-3-one]
CC50 at 24 h (AC50 (uM) modified / 1000): > 90 µM

CC(C)(C)C(=O)/C=C/c1ccc(Cl)cc1 [1-(4-Chlorophenyl)-4,4-dimethylpent-1-en-3-one]
CC50 at 24 h (AC50 (uM) modified / 1000): > 90 µM

CNC(C)C(O)c1ccc(O)cc1 (centres unmarked) [1-(4-Hydroxyphenyl)-2-methyl-2-methylaminoethanol hydrochloride]
CC50 at 24 h (AC50 (uM) modified / 1000): > 50 µM

CCC(=O)/C=C/c1ccc(OC)cc1 [1-(4-Methoxyphenyl)-1-pentene-3-one]
CC50 at 24 h (AC50 (uM) modified / 1000): > 90 µM

CCC(=O)C1CC(C(C)C)CC=C1C (centres unmarked) [1-(5-Isopropyl-2-methyl-cyclohex-2-enyl)-propan-1-one]
CC50 at 24 h (AC50 (uM) modified / 1000): > 90 µM

CC(=O)c1cc(C(C)(C)C)cc2c1CCC2(C)C [1-(6-tert-Butyl-1,1-dimethyl-2,3-dihydro-1H-inden-4-yl)ethanone]
CC50 at 24 h (AC50 (uM) modified / 1000): 40.7 µM

COc1cc(CC(C)N)cc2c1OCO2 (centres unmarked) [1-(7-Methoxy-1,3-benzodioxol-5-yl)propan-2-amine hydrochloride]
CC50 at 24 h (AC50 (uM) modified / 1000, Tox21_110001=Tox21_112842, viability, 1 nM T3 present, 24 h): > 100 µM

BrCc1cccc(Oc2ccccc2)c1 [1-(Bromomethyl)-3-phenoxybenzene]
CC50 at 24 h (AC50 (uM) modified / 1000): > 90 µM

Cc1ccccc1CCl [1-(Chloromethyl)-2-methylbenzene]
CC50 at 24 h (AC50 (uM) modified / 1000): > 90 µM

CC1(C)C(=O)NC(=O)N1CO [1-(Hydroxymethyl)-5,5-dimethylhydantoin]
CC50 at 24 h (AC50 (uM) modified / 1000): > 90 µM

CCCCCCCCCCCCSC [1-(Methylsulfanyl)dodecane]
CC50 at 24 h (AC50 (uM) modified / 1000): > 90 µM

C=CC(=O)N1CCOCC1 [1-(Morpholin-4-yl)prop-2-en-1-one]
CC50 at 24 h (AC50 (uM) modified / 1000): > 90 µM

Cc1ccccc1NC(=N)NC(=N)N [1-(o-Tolyl)biguanide]
CC50 at 24 h (AC50 (uM) modified / 1000): > 90 µM

CC(=O)NNc1ccccc1 [1-Acetyl-2-phenylhydrazine]
CC50 at 24 h (AC50 (uM) modified / 1000, Tox21_110001=Tox21_200069, viability, 1 nM T3 present, 24 h): 7.15 µM

C=CCn1cc[n+](C)c1 [1-Allyl-3-methylimidazolium chloride]
CC50 at 24 h (AC50 (uM) modified / 1000): > 90 µM

Nc1c(Br)cc(Br)c2c1C(=O)c1ccccc1C2=O [1-Amino-2,4-dibromoanthraquinone]
CC50 at 24 h (AC50 (uM) modified / 1000, Tox21_110001=Tox21_202582, viability, 1 nM T3 present, 24 h): > 20 µM

Cc1ccc2c(c1N)C(=O)c1ccccc1C2=O [1-Amino-2-methylanthraquinone]
CC50 at 24 h (AC50 (uM) modified / 1000): 78.4 µM

CC(O)CN (centres unmarked) [1-Amino-2-propanol]
CC50 at 24 h (AC50 (uM) modified / 1000): > 90 µM

N#CC1(N)CCCCC1 [1-Aminocyclohexanecarbonitrile]
CC50 at 24 h (AC50 (uM) modified / 1000): > 90 µM

CC(=O)CC(=O)c1ccccc1 [1-Benzoylacetone]
CC50 at 24 h (AC50 (uM) modified / 1000): > 90 µM

C[n+]1ccn(Cc2ccccc2)c1 [1-Benzyl-3-methylimidazolium chloride]
CC50 at 24 h (AC50 (uM) modified / 1000): > 90 µM

c1ccc(CN2CCNCC2)cc1 [1-Benzylpiperazine difumarate]
CC50 at 24 h (AC50 (uM) modified / 1000, Tox21_110001=Tox21_112882, viability, 1 nM T3 present, 24 h): > 200 µM
